Laboratory results: patent US11154480B2, “Shaping keratin fibres using a sugar” (The Procter & Gamble Company, priority 2013, dated 2021)

Tests used:
[1] = Benedict's Test for reducing sugars; assay type: physicochemical
Source text: As used herein, “reducing sugar” means any sugar that either has an aldehyde group or is capable of forming an aldehyde group in solution through isomerism, and that gives a positive result in the Benedict's test. An aldehyde group is —C(═O)H. The aldehyde group is important in view of reacting with and crosslinking the hair. The Benedict's test involves employment of the Benedict's solution. The Benedict's solution is available from Sigma Aldrich as ‘Benedict's Reagent’, which comprises sodium carbonate, copper sulphate pentahydrate and 2,5-difluorotoluene. In the Benedict's test, 1 mL of Benedict's solution is added to a 20 mL of 5% aqueous solution comprising a dissolved test compound. Benedict's solution contains blue copper(II) ions (Cu^2+). The solution is heated to 80° C. for 15 min and the resulting colour change is noted. The cupric ion of the Benedict's solution is reduced to cuprous ion by the aldehyde of the sugar. A positive Benedict's test result is confirmed with a change in colour as cupric ions (Cu^2+) are converted to cuprous ions i.e. reduced to copper(I) ions (Cu^+). These are precipitated as red copper(I) oxide which is insoluble in water. The test is also designed for longer heating time and higher temperature to note any colour change. The solution may range in colour (with increasing amounts of reducing sugar) from green, through yellow and orange, to red. […] The wavelength of light reflected by the solution will change with the colour. In at least one embodiment, a positive Benedict's test result is when the solution emits light not peaking with a wavelength in the range of 450 nm to 495 nm. In at least one embodiment, a positive Benedict's test result is when the solution emits light peaking with a wavelength in the range of 620 nm to 750 nm. This can be measured using a spectrophotometer.
In the art, the Benedict's reagent is used as a test for the presence of reducing sugars. This includes all monosaccharides and many disaccharides, including lactose and maltose. Even more generally, Benedict's test will detect the presence of aldehydes, and alpha-hydroxy-ketones, including those that occur in certain ketoses. Thus, although fructose, a ketose, is not strictly a reducing sugar, it is an alpha-hydroxy-ketone, it gives a positive test because it is converted to the aldoses glucose and mannose by the base in the reagent. The copper sulphate in Benedict's solution reacts with reducing sugars. One litre of Benedict's reagent can be prepared from 100 g of anhydrous sodium carbonate, 173 g of sodium citrate and 17.3 g of copper(II) sulfate pentahydrate. Benedict's Reagent provides a quantitative test for reducing sugars along with qualitative test. The colour of the obtained precipitate gives an idea about the quantity of sugar present in the solution. A greenish precipitate indicates about 0.5% concentration; yellow precipitate indicates 1% concentration; orange indicates 1.5% and red indicates 2% or higher concentration. A positive result in the Benedict's test can be recognised for a compound by a 5% (weight/weight) solution of compound in water as a red colouring. The aldehyde group of the sugar allows the sugar to act as a reducing agent, for example in the Benedict's test.

[2] = as known in the art; converted to aldoses by the base in the reagent; cited from earlier work
[3] = 80° C., 15 min, 5% aqueous solution of test compound

| Structure (SMILES) | Assessment of sugars using the Benedict's Test [1, 3] | Assessment of sugars using the Benedict's Test ([1]; 100° C., 40 min) | Benedict's test result [2] |
| --- | --- | --- | --- |
| O=C[C@@H](O)[C@H](O)[C@H](O)CO [Arabinose] | Positive | Positive | – |
| O=C(CO)[C@@H](O)[C@H](O)[C@H](O)CO [Fructose] | Positive | Positive | positive |
| CO[C@H]1OC(CO)[C@H](O)[C@@H](O)[C@@H]1O (stereo partly shown) [Methyl glucoside] | Negative | Positive | – |
| O=C[C@H](O)[C@@H](O)[C@H](O)CO [Xylose] | Positive | Positive | – |

Further lines, with some results ahead:

| Assessment of sugars using the Benedict's Test [1, 3] | Assessment of sugars using the Benedict's Test ([1]; 100° C., 40 min) | Structure (SMILES) | Benedict's test result [2] |
| --- | --- | --- | --- |
| Positive | Positive | O=C[C@H](O)[C@H](O)[C@H](O)CO [Ribose] | – |
| Negative | Positive | OC[C@H]1O[C@@](CO)(O[C@H]2O[C@H](CO)[C@@H](O)[C@H](O)[C@H]2O)[C@@H](O)[C@@H]1O [Sucrose] | – |
